Experimental data published in article PMC6522941, “Design, synthesis, and anticancer evaluation of novel quinoline derivatives of ursolic acid with hydrazide, oxadiazole, and thiadiazole moieties as potent MEK inhibitors” (Journal of Enzyme Inhibition and Medicinal Chemistry, 2019).
pIC50: −log10 of the molar value.

How the values were obtained:
[1] = tested on: HeLa cells; experiment: JC-1 mitochondrial membrane potential assay; type: cell-based, human; conditions: 24 h, control 7.59
Protocol: The JC-1 mitochondrial membrane potential assay kit (Keygene Biotech., Nanjing, China) was employed to measure mitochondrial depolarisation in HeLa cells. Briefly, cells cultured in six-well plates after indicated treatments by compound 4d were incubated with an equal volume of JC-1 staining solution (5 μg/mL) at 37 °C for 20 min and rinsed twice with PBS. Mitochondrial membrane potentials were monitored by determining the relative amounts of dual emissions from mitochondrial JC-1 monomers or aggregates using flow cytometry (Becton-Dickinson FACSCalibur, New York, NY, USA). Mitochondrial membrane depolarisation is indicated by an increase in the percentage of cells with low ΔΨm (green fluorescence and lower right quadrant) compared with cells with high ΔΨm (red fluorescence and upper right quadrant).
As a kind of important organelle, Mitochondria play indispensable roles not only on supplying metabolic energy in the form of ATP, but also on regulating the signal transmission during the apoptosis of cancer cells. In addition, the mitochondrial dysfunction can be aroused under high ROS exposure, leading to the collapse of mitochondrial membrane potential (ΔΨm), which is a characteristic phenomenon of early apoptosis. Loss of ΔΨm can be detected using the fluorescent cationic dye JC-1, which spontaneously forms red fluorescent dimers (J aggregates) under high ΔΨm, whereas its monomeric form showing green fluorescence is prevalent in cells with low ΔΨm. Green and red fluorescence can be observed at 527 and 590 nm, respectively. Thus, changes in the green/red fluorescence ratio reflect the variation in ΔΨm, which can be quantitatively analysed by flow cytometry.

[2] = tested on: HeLa cells; experiment: Annexin V-FITC/PI dual staining apoptosis assay; type: cell-based, human; conditions: 48 h, control 6.44
Protocol: The extent of apoptosis was quantitatively measured using Annexin V-FITC/PI dual staining assay. HeLa cells were seeded into a six-well plate at 5 × 10^5 cells per well in 10% foetal calf serum (FBS)-DMEM into six-well plates and treated with different concentrations of the indicated compound 4d for 48 h. The cells were detached with 0.25% trypsin, washed with ice-cold PBS for twice and then resuspended in 1 × Binding buffer ([…]). The cells were stained with 5 μL of Annexin V-FITC and 5 μL of PI ([…]) to each tube. The cells were gently vortexed and incubated in the dark at room temperature for 15 min and then keep them at 4 °C. The samples were analysed by a flow cytometer (Becton-Dickinson FACSCalibur, Totowa, NJ, USA) and data were analysed using the FlowJo software.
The Annexin V-FITC/PI dual staining assay on HeLa cells treated with compound 4d was carried out to examine the association of compound 4d-mediated cytotoxicity with induction of apoptosis.

[3] = target: T1, MEK1 (Homo sapiens, UniProt Q02750); experiment: In vitro MEK1 kinase assay (ADP-Glo); type: biochemical; conditions: recombinant GST-MEK1, GST-ERK2 (inactive) substrate, 10 μM ATP
T1 construct: purchased Carna Biosciences, Kobe, Japan
Protocol: An in vitro kinase assay of MEK1 was performed using ADP-Glo kinase assay (Promega, Madison, WI, USA) according to the manufacturer’s protocol. […] Reactions were stopped by adding 5 μL of ADP-Glo reagent to each well. After incubating at 22 °C for 40 min, 10 μL of the kinase detection reagent was added and the plates were incubated for another 30 min at 22 °C in the dark. The reaction mixture was analysed by EnSpire (PerkinElmer, Waltham, MA, USA).
The Raf/MEK/ERK pathway is the downstream of Ras activation, and the abnormal expression or phosphorylation of the associated proteins is essential for cancer cell proliferation. In this pathway, MEK kinase is an important anticancer target because of its key roles in regulating the cancer cell apoptosis and oncogenic transformation[51]^,[52]. Among MEK proteins, MEK1 and MEK2 are known as substrate-specific kinases which phosphorylate their downstream kinase ERK1/2.

[4] = tested on: p90RSK, p-p90RSK, BAD, BIM in HeLa cells; experiment: Western blot of downstream proteins of ERK; type: cell-based, human; conditions: 0.05, 0.1, 0.2 μM, 48 h
Protocol: HeLa cells were seeded at a density of 5 × 10^6 cells per well and attached for 8 h, and then treated with different concentrations of compound 4d for 48 h. After the treatment, the cells were harvested and washed twice with PBS. The harvested cells were lysed with radio-immunoprecipitation assay (RIPA) lysis buffer (Beyotime Biotech., Nantong, China) with 1% cocktail (Sigma-Aldrich, St. Louis, MO, USA). Whole-cell protein lysates were prepared and centrifuged at 12,000 rpm for 10 min at 4 °C. The total proteins were determined using Bradford reagent (Bio-Rad Laboratories, Inc., Hercules, CA, USA). Exactly 40 μg of protein per lane was separated through sodium dodecyl sulphate-polyacrylamide gel electrophoresis and then transferred onto a polyvinylidene difluoride membrane (Millipore, Bedford, MA, USA). The membranes were incubated with each antibody and detected through immunoblot analysis. All of the antibodies were purchased from Cell signalling Technology, Inc. (Boston, MA, USA) and diluted in accordance with the manufacturer’s instruction. Proteins were visualised using a C-Digit® imaging system (LI-COR, Lincoln, NE, USA).
In addition, the effect of compound 4d on the downstream proteins of ERK (p90RSK, BAD, and BIM) was also investigated by western blot analysis. It is known that activated ERK1/2 (p-ERK1/2) directly phosphorylates and activates p90RSK, which subsequently decreases the level of pro-apoptotic BH3-only proteins BIM and BAD and inhibits their apoptosis-promoting activity.

T1 sequence (Q02750 whole entry): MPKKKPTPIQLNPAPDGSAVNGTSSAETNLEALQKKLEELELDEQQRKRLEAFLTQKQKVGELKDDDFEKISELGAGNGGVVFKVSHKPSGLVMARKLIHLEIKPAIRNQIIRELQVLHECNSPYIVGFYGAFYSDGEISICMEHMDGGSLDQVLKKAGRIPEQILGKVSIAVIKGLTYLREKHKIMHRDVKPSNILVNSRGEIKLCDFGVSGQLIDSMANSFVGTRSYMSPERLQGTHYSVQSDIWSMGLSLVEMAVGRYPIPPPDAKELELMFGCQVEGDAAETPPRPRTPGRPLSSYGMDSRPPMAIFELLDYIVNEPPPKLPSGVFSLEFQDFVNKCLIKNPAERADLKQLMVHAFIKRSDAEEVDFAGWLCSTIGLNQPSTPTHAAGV

pIC50 [3]: 7.19
Compound: CC(=O)NNC(=O)C12CCC(C)C(C)C1C1=CCC3C4(C)Cc5cc6cc(Cl)ccc6nc5C(C)(C)C4CCC3(C)C1(C)CC2 (centres unmarked) [Compound 4d, N-[5′-chloro-ursa-12-en-(2,3)-quinoline-28-oyl]-acetohydrazide]
Cells with low ΔΨm (green fluorescence, lower right quadrant) ([1]; 0.05 μM): 36.33%
Cells with low ΔΨm (green fluorescence, lower right quadrant) ([1]; 0.1 μM): 54.08%
Cells with low ΔΨm (green fluorescence, lower right quadrant) ([1]; 0.2 μM): 70.83%
percentage of early and late apoptotic cells ([2]; 0.05 μM): 37.56%
percentage of early and late apoptotic cells ([2]; 0.1 μM): 58.31%
percentage of early and late apoptotic cells ([2]; 0.2 μM): 74.22%
expression level of p90RSK [4]: significantly decreased
expression level of p-p90RSK [4]: significantly decreased
level of BAD [4]: upregulated
level of BIM [4]: upregulated
